Data published in ChEMBL document CHEMBL4699511, “Cedrol, a Sesquiterpene Alcohol, Enhances the Anticancer Efficacy of Temozolomide in Attenuating Drug Resistance via Regulation of the DNA Damage Response and MGMT Expression” (J Nat Prod, 2020).
Calls of active or inactive are those of the source. The calls are words filed in the database; no cut-off is given here.

Tests used:
RG2 [1] = test: Induction of DNA damage in rat RG2 cells assessed as Chk2 phosphorylation at Thr68 at 206 uM after 48 hrs by Western blot analysis (reference value: 1); assay type: functional
DBTRG-05MG [2] = test: Induction of cell cycle arrest in human DBTRG-05MG cells assessed as accumulation at G2/M phase at 206 uM after 6 hrs by propidium iodide staining based flow cytometric analysis (reference value: 30.08 +/- 0.1%); assay type: functional
DBTRG-05MG [3] = test: Induction of cell cycle arrest in human DBTRG-05MG cells assessed as accumulation at G0/G1 phase at 206 uM after 48 hrs by propidium iodide staining based flow cytometric analysis (reference value: 47.16 +/- 1.55%); assay type: functional
[4] = Effect on AKT expression in human DBTRG-05MG cells at 206 uM after 48 hrs by Western blot analysis (reference value: 1); assay type: functional
RG2 [5] = test: Induction of DNA damage in rat RG2 cells assessed as H2A.X phosphorylation at ser139 at 206 uM after 48 hrs by Western blot analysis (reference value: 1); assay type: functional
RG2 [6] = test: Induction of apoptosis in rat RG2 cells assessed as phosphorylated caspace-3 expression at 112.4 uM after 48 hrs by Western blot analysis (reference value: 1); assay type: functional
DBTRG-05MG [7] = test: Synergistic cytotoxicity against human DBTRG-05MG cells assessed as combination index at 112.4 uM after 48 hrs in presence of 309 uM TMZ by MTT assay; assay type: functional
RG2 [8] = test: Synergistic cytotoxicity against rat RG2 cells assessed as synergistic effect index at 134.9 uM after 48 hrs in presence of 103 uM TMZ by MTT assay; assay type: functional
[9] = Synergistic cytotoxicity against rat CTX TNA2 cells assessed as synergistic effect index at 134.9 uM after 48 hrs in presence of 206 uM TMZ by MTT assay; assay type: cell-based; details: ctx tna2, 48 h
DBTRG-05MG [10] = test: Induction of cell cycle arrest in human DBTRG-05MG cells assessed as accumulation at G2/M phase at 112.4 uM after 6 hrs by propidium iodide staining based flow cytometric analysis (reference value: 30.08 +/- 0.1%); assay type: functional
DBTRG-05MG [11] = test: Induction of DNA damage in human DBTRG-05MG cells assessed as ATM phosphorylation at ser1981 residues at 112.4 uM after 48 hrs by Western blot analysis (reference value: 1); assay type: functional
RG2 [12] = test: Synergistic cytotoxicity against rat RG2 cells assessed as synergistic effect index at 134.9 uM after 48 hrs in presence of 206 uM TMZ by MTT assay; assay type: functional
RG2 [13] = test: Induction of apoptosis in rat RG2 cells assessed as cleaved caspace-3 expression at 112.4 uM after 48 hrs by Western blot analysis (reference value: 1); assay type: functional
DBTRG-05MG [14] = test: Synergistic cytotoxicity against human DBTRG-05MG cells assessed as synergistic effect index at 112.4 uM after 48 hrs in presence of 309 uM TMZ by MTT assay; assay type: functional
RG2 [15] = test: Induction of apoptosis in rat RG2 cells assessed as phosphorylated caspace-9 expression at 112.4 uM after 48 hrs in presence of TMZ by Western blot analysis (reference value: 1); assay type: functional
RG2 [16] = test: Induction of DNA damage in rat RG2 cells at 112.4 uM after 48 hrs in presence of TMZ by p.H2A.X staining based fluorescent immunocytochemistry method; assay type: functional, cell-based
[17] = Synergistic cytotoxicity against rat CTX TNA2 cells assessed as combination index at 112.4 uM after 48 hrs in presence of 309 uM TMZ by MTT assay; assay type: cell-based; details: ctx tna2, 48 h
DBTRG-05MG [18] = test: Induction of apoptosis in human DBTRG-05MG cells assessed as cleaved caspace-3 expression at 112.4 uM after 48 hrs in presence of TMZ by Western blot analysis (reference value: 1); assay type: functional
RG2 [19] = test: Synergistic cytotoxicity against rat RG2 cells assessed as combination index at 134.9 uM after 48 hrs in presence of 103 uM TMZ by MTT assay; assay type: functional
RG2 [20] = test: Inhibition of AKT phosphorylation at S473 residues in rat RG2 cells at 112.4uM after 48 hrs in presence of TMZ by Western blot analysis; assay type: cell-based
RG2 [21] = test: Induction of apoptosis in rat RG2 cells assessed as increase in chromatin condensation at 112.4 uM after 48 hrs in presence of TMZ by TUNEL assay; assay type: functional, cell-based
RG2 [22] = test: Induction of cell cycle arrest in rat RG2 cells assessed as accumulation at G2/M phase at 112.4 uM after 12 hrs in presence of TMZ by propidium iodide staining based flow cytometric analysis (reference value: 20.04 +/- 0.55%); assay type: functional
DBTRG-05MG [23] = test: Induction of apoptosis in human DBTRG-05MG cells assessed as phosphorylated caspace-3 expression at 112.4 uM after 48 hrs in presence of TMZ by Western blot analysis (reference value: 1); assay type: functional
[24] = Inhibition of TMZ-induced drug resistance in human DBTRG-05MG cells assessed as MGMT expression at 112.4 uM after 48 hrs by Western blot analysis (reference value: 1.3); assay type: functional
RG2 [25] = test: Induction of cell cycle arrest in rat RG2 cells assessed as accumulation at S phase at 112.4 uM after 12 hrs in presence of TMZ by propidium iodide staining based flow cytometric analysis (reference value: 20.15 +/- 2.44%); assay type: functional
RG2 [26] = test: Induction of DNA damage in rat RG2 cells assessed as ATM phosphorylation at ser1981 residues at 112.4 uM after 48 hrs in presence of TMZ by Western blot analysis (reference value: 1); assay type: functional
DBTRG-05MG [27] = test: Synergistic cytotoxicity against human DBTRG-05MG cells assessed as synergistic effect index at 89.9 uM after 48 hrs in presence of 515.1 uM TMZ by MTT assay; assay type: functional
DBTRG-05MG [28] = test: Synergistic cytotoxicity against human DBTRG-05MG cells assessed as synergistic effect index at 134.9 uM after 48 hrs in presence of 412.1 uM TMZ by MTT assay; assay type: functional
DBTRG-05MG [29] = test: Induction of cell cycle arrest in human DBTRG-05MG cells assessed as accumulation at G0/G1 phase at 112.4 uM after 24 hrs in presence of TMZ by propidium iodide staining based flow cytometric analysis (reference value: 47.16 +/- 1.55%); assay type: functional
DBTRG-05MG [30] = test: Induction of cell cycle arrest in human DBTRG-05MG cells assessed as accumulation at G0/G1 phase at 112.4 uM after 6 hrs in presence of TMZ by propidium iodide staining based flow cytometric analysis (reference value: 47.16 +/- 1.55%); assay type: functional
[31] = Synergistic cytotoxicity against rat CTX TNA2 cells assessed as combination index at 134.9 uM after 48 hrs in presence of 103 uM TMZ by MTT assay; assay type: cell-based; details: ctx tna2, 48 h
[32] = Synergistic cytotoxicity against rat CTX TNA2 cells assessed as synergistic effect index at 134.9 uM after 48 hrs in presence of 515.1 uM TMZ by MTT assay; assay type: cell-based; details: ctx tna2, 48 h
DBTRG-05MG [33] = test: Induction of cell cycle arrest in human DBTRG-05MG cells assessed as accumulation at S phase at 112.4 uM after 12 hrs in presence of TMZ by propidium iodide staining based flow cytometric analysis (reference value: 22.76 +/- 1.56%); assay type: functional

Cn1nnc2c(C(N)=O)ncn2c1=O [TEMOZOLOMIDE]
fold change (FC) (RG2 [1]): 1.3
Activity (DBTRG-05MG [2]): 34.67%
Activity (DBTRG-05MG [3]): 22.95%
fold change (FC) [4]: 1
fold change (FC) (RG2 [5]): 1.1

C[C@@H]1CC[C@H]2C(C)(C)[C@H]3C[C@@]12CC[C@@]3(C)O [CEDROL]
fold change (FC) (RG2 [6]): 1.1
CI (DBTRG-05MG [7]): 0.57
Activity_index (RG2 [8]): 0.9
Activity_index [9]: 0.43
Activity (DBTRG-05MG [10]): 30.35%
fold change (FC) (DBTRG-05MG [11]): 1.8
Activity_index (RG2 [12]): 0.91
fold change (FC) (RG2 [13]): 1.6
Activity_index (DBTRG-05MG [14]): 0.87
fold change (FC) (RG2 [15]): 0.4
Activity (RG2 [16]): Active
CI [17]: 1.09
fold change (FC) (DBTRG-05MG [18]): 4.4
CI (RG2 [19]): 0.83
fold change (FC) (RG2 [20]): 0.5
Activity (RG2 [21]): Active
Activity (RG2 [22]): 18.79%
fold change (FC) (DBTRG-05MG [23]): 1.2
fold change (FC) [24]: 0.8
Activity (RG2 [25]): 21.29%
fold change (FC) (RG2 [26]): 1
Activity_index (DBTRG-05MG [27]): 0.77
Activity_index (DBTRG-05MG [28]): 0.9
Activity (DBTRG-05MG [29]): 48.93%
Activity (DBTRG-05MG [30]): 49.17%
CI [31]: 1.23
Activity_index [32]: 0.7
Activity (DBTRG-05MG [33]): 16.75%
